# Assay results published in patent US5656669A, “Restorative neuropharmacological agent for motor and speech disturbance” (Sumitomo Pharmaceuticals Co., Ltd., priority 1994, dated 1997).
# Entries after “also recorded” stand apart in the source; their conditions may differ. Read-outs that look alike come from different tables or passages of the source.
# How the values were obtained:
# rabbits = conditions: oral 30, 100, 300 mg/kg/day; cited from earlier work
# [1] = Short term clinical testing, motor disturbance: FMS (Fugl-Meyer score); assay type: in vivo, clinical subjects; conditions: for Improvement in FMS: individual case
# Protocol: (§1) Clinical testing was conducted to evaluate the effects of the restorative neuropharmacological agent for motor and speech disturbance according to this invention.
# (§2) Clinical subjects for motor disturbance were 2 cases after cerebral aneurysm operations (subarachnoid hemorrhage), 9 cases of brain hemorrhage and 10 cases of brain infarction with chronic apoplectic paralysis, i.e. a total of 21 cases (12 males and 9 females, age 43-83 with an average 61.9±2.5 years). For these clinical subjects, the average time elapsed from the onset had occurred was 100 days.
# (§3) First, the clinical subjects received physical therapy without administration of droxidopa (L-DOPS), and then they were evaluated with FMS (Fugl-Meyer score), 10-meter walking and the Barthel index. The clinical subjects then received administration of 300 mg droxidopa (L-DOPS) per day for 2 days in addition to the physical therapy, and were evaluated with FMS. 10-meter walking and with the Barthel index.
# [2] = Repeated 2-day administration after 1-2 weeks and halt of administration, motor functions; assay type: in vivo, clinical subjects
# From the text: The administration of droxidopa to the clinical subjects was then halted, but the level of the improvement effect on motor functions was maintained.
# beagle dogs [3] = conditions: oral 200, 600, 2,000 mg/kg/day, 3 months; cited from earlier work
# rhesus monkeys [4] = conditions: cited from earlier work; for LD50: oral
# Rats, SD strain = conditions: cited from earlier work
# beagle dogs [5] = conditions: oral 125, 500, 2,000 mg/kg/day, 12 months; cited from earlier work
# [6] = Clinical testing, speech disturbance (Broca aphasia after stroke): standard aphasia testing (SLAT); assay type: in vivo, clinical subjects; conditions: after 2 weeks
# Protocol: (§4) The clinical subjects for speech disturbance were 10 cases of Broca aphasia after stroke (3 males and 7 females, age 51-65 with an average of 58.6±1.6 years).
# (§5) First, without administration of droxidopa, the clinical subjects were evaluated with standard aphasia testing (SLAT). […] For 8 of the clinical subjects, 100 mg of droxidopa was administered once a day for a subsequent 2 weeks and evaluation was conducted using SLAT.
# rhesus monkeys [7] = conditions: oral 300, 1,000, 3,000 mg/kg/day, 3 months; cited from earlier work
# SD rats [8] = conditions: oral 60, 200, 600 mg/kg/day, male and female; cited from earlier work
# physchem = assay type: physicochemical; conditions: titration method
# From the text: (§6) L-threo-DOPS, whose molecular formula is C9 H11 NO5, is white or light brown crystals or crystalline powder with no taste or odor. […] It is difficult to measure a clear melting point or decomposition point for L-threo-DOPS. […] DL-threo-DOPS, which contains 50% L-threo-DOPS, can also be used in this invention. Hereafter, L-threo-DOPS and DL-threo-DOPS are generically denoted as "threo-DOPS".
# [9] = Long term administration testing: Barthel index (ADL); assay type: in vivo, clinical subjects; conditions: for Improvement in ADL: individual case
# Protocol: Based on the above results, […] term administration testing was conducted.
# [10] = Short term clinical testing, motor disturbance: 10-meter walking; assay type: in vivo, clinical subjects; conditions: of the 21 cases; 300 mg per day for 2 days
# Protocol: as §1, §2, §3
# SD rats [11] = conditions: cited from earlier work; for perinatal and lactation period findings: oral
# SD rats [12] = conditions: cited from earlier work
# [13] = test system: guinea pigs (Hartley strain, male); conditions: cited from earlier work
# mice = conditions: cited from earlier work
# cultured cells = conditions: cited from earlier work
# SD rats [14] = conditions: 3 months, cited from earlier work
# solubility = assay type: physicochemical
# From the text: as §6
# [15] = Short term clinical testing, motor disturbance: Barthel index (ADL); assay type: in vivo, clinical subjects; conditions: of the 19 cases improved in 10-meter walking; 300 mg per day for 2 days
# Protocol: as §1, §2, §3
# [16] = Short term clinical testing: central-facial palsy; assay type: in vivo, clinical subjects; conditions: all of the 12 cases with central-facial palsy; 300 mg per day for 2 days; none of 6 control cases
# SD rats [17] = conditions: oral, 12 months, cited from earlier work
# microorganisms = conditions: cited from earlier work
# [18] = Side-effects in clinical subjects with speech disturbance; assay type: in vivo; conditions: clinical subjects with Broca aphasia
# Protocol: as §4, §5
# Mice, ICR strain = conditions: cited from earlier work
# [19] = Speech observation on administration and on stopping administration, Broca aphasia after stroke; assay type: in vivo, clinical subjects
# Protocol: as §4, §5
# Administration of droxidopa to these clinical subjects was stopped after 2 weeks. As a result, speech was totally lost in 2 cases. Subsequently, administration of droxidopa was stopped twice and, in one case, speech was totally lost every time administration was stopped and restored when administration was resumed.
# beagle dogs [20] = conditions: cited from earlier work; for LD50: oral
# [21] = test system: aromatic L-amino acid decarboxylase; conditions: by aromatic L-amino acid decarboxylase; conventional pharmacological features; cited from earlier work
# [22] = conventional pharmacological features; cited from earlier work
# [23] = of the 21 cases, 300 mg per day for 2 days
compound,measurement,setting,value
"N[C@@H](C(=O)O)[C@H](O)c1ccc(O)c(O)c1 [L-threo-DOPS, (-)-(2R, 3R)-2-amino-3-hydroxy-3-(3,4-dihydroxyphenyl) propionic acid]","influence, organ forming period",rabbits,no influence on the rabbits was observed
same,FMS increase,"[1]; 300 mg per day for 2 days plus physical therapy, higher than control cases",2.5±0.5
same,Improvement in FMS,"[1]; brain hemorrhage (BH), 300 mg per day for 2 days plus physical therapy, listed as L-DOPS",Improved; also recorded: No change
same,Improvement in FMS,"[1]; brain infarction (BI), 300 mg per day for 2 days plus physical therapy, listed as L-DOPS",Improved; also recorded: No change
same,Improvement in FMS,"[1]; subarachnoid hemorrhage (SAH), 300 mg per day for 2 days plus physical therapy",Improved
same,cases with improved balance (FMS),[1]; [23],3 cases
same,cases with improvement in lower limb motor function (FMS),[1]; [23],6 cases
same,cases with improvement in upper limb motor function (FMS),[1]; [23],10 cases
same,cases with improved FMS,"[1]; of the 21 cases, 300 mg per day for 2 days plus physical therapy",15 cases
same,cases with further improvement on repeated administration,[2]; 5 cases re-dosed for 2 consecutive days after 1-2 weeks,3 cases
same,level of the improvement effect on motor functions after administration was halted,[2]; after halting administration,maintained
same,subacute toxicity findings,beagle dogs [3],no abnormality was observed
same,LD50,rhesus monkeys [4]; female,> 5000 mg/kg
same,LD50,rhesus monkeys [4]; male,> 5000 mg/kg
same,"general symptoms, acute toxicity",rhesus monkeys [4]; rhesus monkeys,no abnormal symptom was observed
same,LD50,"Rats, SD strain; hypodermic, female",95 mg/kg
same,LD50,"Rats, SD strain; hypodermic, male",84 mg/kg
same,LD50,"Rats, SD strain; intravenous, female",19 mg/kg
same,LD50,"Rats, SD strain; intravenous, male",16 to 19 mg/kg
same,LD50,"Rats, SD strain; oral, female",> 10000 mg/kg
same,LD50,"Rats, SD strain; oral, male",> 10000 mg/kg
same,"general symptoms, acute toxicity","Rats, SD strain; rats","reduced voluntary motions, deep breathing and bradypnea were observed"
same,chronic toxicity findings,beagle dogs [5],no abnormality was observed
same,"cases with improvement in ""hearing"" (SLAT)",[6],one
same,"cases with improvement in ""reading"" (SLAT)",[6],3 cases
same,"cases with improvement in ""repeating"" (SLAT)",[6],2 cases
same,"cases with improvement in ""speaking"" (SLAT)",[6],7 cases
same,"cases with improvement in ""writing"" (SLAT)",[6],6 cases
same,"average improvement rate, SLAT ""hearing"", imperatives",[6]; 100 mg once a day,16%
same,"average improvement rate, SLAT ""hearing"", short sentences",[6]; 100 mg once a day,33%
same,"average improvement rate, SLAT ""reading"", Chinese character words",[6]; 100 mg once a day,10%
same,"average improvement rate, SLAT ""reading"", short sentences",[6]; 100 mg once a day,20%
same,"average improvement rate, SLAT ""repeating""",[6]; 100 mg once a day,10%
same,"average improvement rate, SLAT ""speaking"", actions",[6]; 100 mg once a day,13%
same,"average improvement rate, SLAT ""speaking"", names",[6]; 100 mg once a day,27%
same,"average improvement rate, SLAT ""writing"", Japanese syllabary words",[6]; 100 mg once a day,20%
same,cases with improved SLAT results,[6]; of the 10 cases,8 cases
same,subacute toxicity findings,rhesus monkeys [7],no abnormality was observed
same,"mating rate, conception rate, nidation number, embryo/neonate death, teratogenic actions or fetal development",SD rats [8],no influence was observed
same,pKa,physchem,7.88
same,dependence of results on time elapsed since onset of the illness,[9]; 200-500 mg/day for 2 weeks to 2 months,independent of the time elapsed since onset of the illness
same,Improvement in ADL,"[9]; 200 mg per day × 2W, listed as L-DOPS",Improved; also recorded: No change
same,Improvement in ADL,[9]; 200 mg per day × 4W,No change
same,Improvement in ADL,[9]; 200 mg per day × 8W,Improved
same,Improvement in ADL,[9]; 300 mg per day × 3W,Improved
same,Improvement in ADL,[9]; 300 mg per day × 6W,Improved
same,Improvement in ADL,[9]; 300 mg per day × 7W,No change
same,Improvement in ADL,[9]; 500 mg per day × 6W,Improved
same,cases with improvement in the Barthel index (ADL),"[9]; of the 10 cases, 200-500 mg/day for 2 weeks to 2 months",7 cases
same,cases with improvement in the 10-meter walking,[10],19 cases
same,"other influence, perinatal and lactation period","SD rats [11]; oral 60, 200, 600 mg/kg/day",No other influence was observed
same,perinatal and lactation period findings,SD rats [11]; 60 mg/kg or higher,suppression of neonatal development after birth was observed
same,perinatal and lactation period findings,SD rats [11]; 600 mg/kg,shortening of the pregnancy period was observed
same,"other influence, organ forming period","SD rats [12]; oral 60, 200, 600 mg/kg/day",No other influence was observed
same,findings in fetuses,"SD rats [12]; oral, 200 mg/kg or higher, restorable after birth",lower body weights of fetuses and an increase in the occurrence of undulating ribs were observed
same,Endodermoreaction,[13],negative
same,PCA reaction,[13],negative
same,intra-gel sedimentation reaction,[13],negative
same,systemic anaphylaxis reaction,[13],negative
same,"mutagenicity, micronucleus testing",mice,no mutagenicity was observed
same,"mutagenicity, chromosome abnormality testing",cultured cells,no mutagenicity was observed
same,subacute toxicity findings,"SD rats [14]; oral, 60 mg/kg/day and higher","suppressed voluntary motions, necrosis of kidney uriniferous tubuli, necrosis of cardiac muscles, etc. were observed"
same,subacute toxicity findings,"SD rats [14]; oral, 300 mg/kg/day and higher",Suppression of weight increases and such were observed
same,subacute toxicity findings,"SD rats [14]; oral, 1,500 mg/kg/day",Drooling was observed
same,solubility in ethanol,solubility; ethanol,dissolves very little
same,solubility in ether,solubility; ether,dissolves very little
same,solubility in glacial acetic acid,solubility; glacial acetic acid,dissolves very little
same,solubility in water,solubility; water,dissolves only slightly
same,cases with improvement in the Barthel index (ADL),[15],one
same,cases with central-facial palsy that showed improvement,[16],12 cases
same,chronic toxicity findings,SD rats [17]; 30 mg/kg/day and higher,"suppression of weight increases, an increase in thymus weight, necrosis of kidney uriniferous tubuli, degeneration of kidney glomeruli, etc. were observed"
same,chronic toxicity findings,SD rats [17]; 100 mg/kg/day and higher,"drooling, myocarditis and calcification of cardiac muscles, etc. were observed"
same,"mutagenicity, back mutation testing",microorganisms,no mutagenicity was observed
same,side-effects,[18],No serious side-effect was observed
same,LD50,"Mice, ICR strain; hypodermic, female",> 10000 mg/kg
same,LD50,"Mice, ICR strain; hypodermic, male",> 10000 mg/kg
same,LD50,"Mice, ICR strain; intravenous, female",> 100 mg/kg
same,LD50,"Mice, ICR strain; intravenous, male",> 100 mg/kg
same,"general symptoms, acute toxicity","Mice, ICR strain; mice","reduced voluntary motions, deep breathing and bradypnea were observed"
same,LD50,"Mice, ICR strain; oral, female",> 10000 mg/kg
same,LD50,"Mice, ICR strain; oral, male",> 10000 mg/kg
same,speech after 2 days of administration,"[19]; 300 mg, 3 times a day for 2 days",speech improved
same,cases in which speech was totally lost after administration was stopped,[19]; administration stopped after 2 weeks,2 cases
same,cases in which speech was totally lost every time administration was stopped and restored when resumed,[19]; administration stopped twice,one
same,"general symptoms, acute toxicity",beagle dogs [20]; dogs,no abnormal symptom was observed
same,LD50,beagle dogs [20]; female,> 5000 mg/kg
same,LD50,beagle dogs [20]; male,> 5000 mg/kg
N[C@H](C(=O)O)[C@H](O)c1ccc(O)c(O)c1 [threo-DOPS],conversion to norepinephrine,[21],directly converted to 1-norepinephrine
same,passage through the blood-brain barrier,[22],passes through the blood-brain barrier into the brain
